Laboratory results published in patent US11572590B2, “Methods for evaluating tumor cell spheroids using 3D microfluidic cell culture device” (Dana-Farber Cancer Institute, Inc., priority 2017, dated 2023).
Like-named read-outs stand apart in the source and are kept apart here.

Assays:
Experiment in all cases: SelectScreen Kinase Profiling, single point inhibition and IC50 for off-target kinases
Assay type in all cases: biochemical
off-target kinases [1] = biological target: off-target kinases (Homo sapiens, UniProt P32298); conditions: GRK4; Cmpd1 1000 μM; ATP Km app; ZLYTE
off-target kinases [2] = biological target: T1, off-target kinases (Homo sapiens, UniProt O43318); conditions: MAP3K7/MAP3K7IP1 (TAK1-TAB1), LanthaScreen Binding
T1 sequence (O43318 1-606): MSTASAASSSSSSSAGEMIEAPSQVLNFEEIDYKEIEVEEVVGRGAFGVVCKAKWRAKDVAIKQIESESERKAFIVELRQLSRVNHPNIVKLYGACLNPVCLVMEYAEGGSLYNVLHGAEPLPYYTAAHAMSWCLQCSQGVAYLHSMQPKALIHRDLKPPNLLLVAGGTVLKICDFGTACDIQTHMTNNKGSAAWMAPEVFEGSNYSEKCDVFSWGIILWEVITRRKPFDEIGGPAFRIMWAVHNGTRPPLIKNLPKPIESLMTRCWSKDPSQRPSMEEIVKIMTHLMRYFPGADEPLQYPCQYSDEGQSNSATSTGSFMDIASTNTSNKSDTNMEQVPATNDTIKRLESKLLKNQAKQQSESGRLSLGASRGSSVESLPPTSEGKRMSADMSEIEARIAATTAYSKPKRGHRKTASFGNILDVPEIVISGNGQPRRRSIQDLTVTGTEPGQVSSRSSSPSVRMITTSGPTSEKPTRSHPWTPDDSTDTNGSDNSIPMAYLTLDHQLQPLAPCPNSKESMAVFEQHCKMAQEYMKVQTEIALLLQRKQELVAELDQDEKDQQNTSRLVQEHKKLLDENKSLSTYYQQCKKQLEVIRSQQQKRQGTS

off-target kinases [3] = biological target: T2, off-target kinases (Homo sapiens, UniProt O95835); conditions: LATS1, LanthaScreen Binding
T2 sequence (O95835 1-1130): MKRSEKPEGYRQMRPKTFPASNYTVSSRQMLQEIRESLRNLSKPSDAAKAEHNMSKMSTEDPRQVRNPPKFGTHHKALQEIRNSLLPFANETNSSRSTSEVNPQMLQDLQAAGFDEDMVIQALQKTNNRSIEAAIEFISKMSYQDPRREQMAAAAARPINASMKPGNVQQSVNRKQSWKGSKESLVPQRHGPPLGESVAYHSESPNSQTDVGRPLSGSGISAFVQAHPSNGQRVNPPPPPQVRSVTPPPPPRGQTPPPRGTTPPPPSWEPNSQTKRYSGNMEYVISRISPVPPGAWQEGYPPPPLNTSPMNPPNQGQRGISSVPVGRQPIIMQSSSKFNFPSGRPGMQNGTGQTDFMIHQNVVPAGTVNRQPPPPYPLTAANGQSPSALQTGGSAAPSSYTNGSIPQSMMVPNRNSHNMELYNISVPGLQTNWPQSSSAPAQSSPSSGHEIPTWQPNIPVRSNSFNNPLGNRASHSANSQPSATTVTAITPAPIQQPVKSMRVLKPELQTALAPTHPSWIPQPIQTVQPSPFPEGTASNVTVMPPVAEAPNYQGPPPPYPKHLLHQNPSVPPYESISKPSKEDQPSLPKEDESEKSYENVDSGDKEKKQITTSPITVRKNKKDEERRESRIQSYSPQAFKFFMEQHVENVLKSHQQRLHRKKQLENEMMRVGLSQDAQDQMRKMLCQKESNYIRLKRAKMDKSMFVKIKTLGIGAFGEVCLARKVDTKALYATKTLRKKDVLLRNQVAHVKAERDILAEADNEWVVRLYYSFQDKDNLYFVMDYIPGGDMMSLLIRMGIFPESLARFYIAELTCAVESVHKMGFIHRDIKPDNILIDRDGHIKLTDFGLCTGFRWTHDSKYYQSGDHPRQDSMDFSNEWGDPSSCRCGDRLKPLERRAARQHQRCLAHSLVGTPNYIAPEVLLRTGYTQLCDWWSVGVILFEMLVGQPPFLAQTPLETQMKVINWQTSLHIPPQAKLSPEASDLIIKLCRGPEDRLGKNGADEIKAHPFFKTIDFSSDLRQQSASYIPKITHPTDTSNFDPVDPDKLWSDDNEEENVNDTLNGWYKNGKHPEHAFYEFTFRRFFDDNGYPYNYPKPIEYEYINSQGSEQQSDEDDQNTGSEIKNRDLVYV

Sequence of off-target kinases (Homo sapiens, UniProt P32298) (P32298 whole entry): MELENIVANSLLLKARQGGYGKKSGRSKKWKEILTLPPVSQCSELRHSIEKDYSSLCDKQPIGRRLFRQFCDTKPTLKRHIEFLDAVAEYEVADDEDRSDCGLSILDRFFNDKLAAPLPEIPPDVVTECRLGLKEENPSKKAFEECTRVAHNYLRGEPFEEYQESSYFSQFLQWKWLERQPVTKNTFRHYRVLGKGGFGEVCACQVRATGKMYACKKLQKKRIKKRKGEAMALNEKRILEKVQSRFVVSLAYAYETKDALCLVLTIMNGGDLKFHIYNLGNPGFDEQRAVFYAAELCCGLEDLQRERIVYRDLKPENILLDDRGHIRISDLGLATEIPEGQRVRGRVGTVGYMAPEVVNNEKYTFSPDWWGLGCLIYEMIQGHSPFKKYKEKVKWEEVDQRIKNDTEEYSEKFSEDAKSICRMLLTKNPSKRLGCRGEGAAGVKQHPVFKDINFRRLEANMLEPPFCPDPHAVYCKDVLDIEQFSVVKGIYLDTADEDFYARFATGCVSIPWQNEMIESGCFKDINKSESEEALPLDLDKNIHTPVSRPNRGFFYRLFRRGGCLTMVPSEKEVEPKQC

N#Cc1cc(-c2ncnc(Nc3ccc(N4CCN(C5COC5)CC4)cc3)n2)ccc1OC1CCOCC1 [Compound 1, 5-(4-((4-(4-(oxetan-3-yl)piperazin-1-yl)phenyl)amino)-1,3,5-triazin-2-yl)-2-((tetrahydro-2H-pyran-4-yl)oxy)benzonitrile]
% Inhibition 1 (off-target kinases [1]): −4%
% Inhibition 2 (off-target kinases [1]): −5%
% Inhibition Avg (off-target kinases [1]): −5%
inhibition (off-target kinases [2]; read-out: % Inhibition 2): 22%
inhibition (off-target kinases [2]; read-out: % Inhibition Avg): 22%
inhibition (off-target kinases [3]; read-out: % Inhibition 1): -5%
inhibition (off-target kinases [3]; read-out: % Inhibition 2): 1%
inhibition (off-target kinases [3]; read-out: % Inhibition Avg): -2%
